According to ChEMBL document CHEMBL3046232, “Synthesis, pharmacological evaluation and molecular docking studies of indanone derivatives” (2012):

Key:
Assay type in all cases: functional
[1] = test system: Rattus norvegicus; test: Anti-inflammatory activity in Rattus norvegicus Wistar albino (rat) assessed as protection against carrageenan-induced paw edema at 50 mg/kg after 90 min
[2] = test system: Rattus norvegicus; test: Anti-inflammatory activity in Rattus norvegicus Wistar albino (rat) assessed as protection against carrageenan-induced paw edema at 50 mg/kg after 30 min
[3] = test system: Escherichia coli; test: Antimicrobial activity against at Escherichia coli at 100 ug/ml by cup-plate method; settings: read-out: IZ
[4] = test system: Aspergillus niger; test: Antimicrobial activity against at Aspergillus niger at 25 ug/ml by cup-plate method; settings: read-out: IZ
[5] = test system: Mus musculus; test: Analgesic activity in Mus musculus Swiss albino (mouse) assessed as increase in reaction time of paw licking or jump response at 50 mg/kg, po after 60 min by hot plate method
[6] = test system: Aspergillus niger; test: Antimicrobial activity against at Aspergillus niger at 100 ug/ml by cup-plate method; settings: read-out: IZ
[7] = test system: Bacillus subtilis; test: Antimicrobial activity against at Bacillus subtilis at 50 ug/ml by cup plate method; settings: read-out: IZ
[8] = test system: Mus musculus; test: Analgesic activity in Mus musculus Swiss albino (mouse) assessed as increase in reaction time of paw licking or jump response at 50 mg/kg, po after 30 min by hot plate method
[9] = test system: Rattus norvegicus; test: Anti-inflammatory activity in Rattus norvegicus Wistar albino (rat) assessed as protection against carrageenan-induced paw edema at 50 mg/kg after 2 hr
[10] = test system: Aspergillus niger; test: Antimicrobial activity against at Aspergillus niger at 50 ug/ml by cup-plate method; settings: read-out: IZ
[11] = test system: Bacillus subtilis; test: Antimicrobial activity against at Bacillus subtilis at 100 ug/ml by cup plate method; settings: read-out: IZ
[12] = test system: Penicillium chrysogenum; test: Antimicrobial activity against at Penicillium chrysogenum at 25 ug/ml by cup-plate method; settings: read-out: IZ
[13] = test system: Penicillium chrysogenum; test: Antimicrobial activity against at Penicillium chrysogenum at 100 ug/ml by cup-plate method; settings: read-out: IZ
[14] = test system: Rattus norvegicus; test: Anti-inflammatory activity in Rattus norvegicus Wistar albino (rat) assessed as protection against carrageenan-induced paw edema at 50 mg/kg after 60 min
[15] = test system: Rattus norvegicus; test: Anti-inflammatory activity in Rattus norvegicus Wistar albino (rat) assessed as protection against carrageenan-induced paw edema at 50 mg/kg after 3 hr
[16] = test system: Mus musculus; test: Analgesic activity in Mus musculus Swiss albino (mouse) assessed as increase in reaction time of paw licking or jump response at 50 mg/kg, po after 90 min by hot plate method
[17] = test system: Penicillium chrysogenum; test: Antimicrobial activity against at Penicillium chrysogenum at 50 ug/ml by cup-plate method; settings: read-out: IZ
[18] = test system: Escherichia coli; test: Antimicrobial activity against at Escherichia coli at 25 ug/ml by cup-plate method; settings: read-out: IZ
[19] = test system: Escherichia coli; test: Antimicrobial activity against at Escherichia coli at 50 ug/ml by cup-plate method; settings: read-out: IZ
[20] = test system: Bacillus subtilis; test: Antimicrobial activity against at Bacillus subtilis at 25 ug/ml by cup plate method; settings: read-out: IZ

Compound | Activity [1] | Activity [2] | zone of inhibition at 100 µg/mL [3] | zone of inhibition at 25 µg/mL [4] | Activity [5] | zone of inhibition at 100 µg/mL [6] | zone of inhibition at 50 µg/mL [7] | Activity [8] | Activity [9] | zone of inhibition at 50 µg/mL [10] | zone of inhibition at 100 µg/mL [11] | zone of inhibition at 25 µg/mL [12] | zone of inhibition at 100 µg/mL [13] | Activity [14] | Activity [15] | Activity [16] | zone of inhibition at 50 µg/mL [17] | zone of inhibition at 25 µg/mL [18] | zone of inhibition at 50 µg/mL [19] | zone of inhibition at 25 µg/mL [20]
O=C1c2ccccc2-c2noc(-c3ccc(O)cc3)c21 | 42.6% | 31.16% | 13.8 mm | 6 mm | 23.74% | 21 mm | 11.2 mm | 16.52% | 36.33% | 13 mm | 17.5 mm | 4.35 mm | 14 mm | 41.46% | 33.45% | 27.87% | 6 mm | 4.75 mm | 5.25 mm | –
CN(C)c1ccc(-c2onc3c2C(=O)c2ccccc2-3)cc1 | 14.23% | 7.11% | 17.2 mm | 5.5 mm | 5.65% | 13 mm | 4.75 mm | 5.02% | 19.21% | 7.5 mm | 12 mm | 4 mm | 12.2 mm | 8.45% | 20.1% | 9.93% | 7.25 mm | – | 12 mm | –
COc1ccc2c(c1)c(CC(=O)O)c(C)n2C(=O)c1ccc(Cl)cc1 [INDOMETHACIN] | 21.12% | 28.56% | – | – | – | – | – | – | 20.15% | – | – | – | – | 23.22% | 20.22% | – | – | – | – | –
COc1ccc(-c2onc3c2C(=O)c2ccccc2-3)cc1 | 16.38% | 7.71% | 20.2 mm | 7.25 mm | 5.13% | 17 mm | 5.5 mm | 3.06% | 12.32% | 11.7 mm | 14.8 mm | 5.35 mm | 19.6 mm | 12.21% | 9.21% | 8.04% | 12.7 mm | 5.5 mm | – | –
OC(Cn1cncn1)(Cn1cncn1)c1ccc(F)cc1F [FLUCONAZOLE] | – | – | – | 11.9 mm | – | 31.8 mm | – | – | – | 21.7 mm | – | 7.32 mm | 21.2 mm | – | – | – | 14.2 mm | – | – | –
COc1ccc(-c2onc3c2C(=O)c2ccccc2-3)cc1OC | 8.12% | 6.21% | 24.5 mm | 6.5 mm | 19.02% | 17.8 mm | 12.8 mm | 12.61% | 6.52% | 13.8 mm | 19.7 mm | 4.75 mm | 13.8 mm | 7.21% | 7.32% | 23.54% | 5.25 mm | 7.25 mm | 11 mm | –
O=C1c2ccccc2-c2noc(-c3cccc([N+](=O)[O-])c3)c21 | 5.52% | 2.02% | 17 mm | 4.25 mm | 10.38% | 17 mm | 7 mm | 5.44% | 7.44% | 13.2 mm | 13.5 mm | – | 13.5 mm | 3.99% | 6.44% | 14.2% | 7 mm | – | 13.2 mm | 4 mm
